# Source: patent US20170168056A1, “METHODS AND COMPOSITIONS FOR DETECTING AND MODULATING CANCER CELLS” (Massachusetts Institute of Technology, priority 2015, published 2017)
# B1: sh-2C: paired control shRNA for sh-2, SEQ ID NO. 9 (nucleic acid)
# guide: TGCTGTTGACAGTGAGCGAAACAGGTCATAGGATTAATTATAGTGAAGCCACAGATGTATAATTAATCCTATGACCTGTTCTGCCTACTGCCTCGGA
# B2: sh-2: shRNA targeting the 11a insertion of Mena^11a, SEQ ID NO. 8 (nucleic acid)
# guide: TGCTGTTGACAGTGAGCGCAACAGGTCCTATGATTCATTATAGTGAAGCCACAGATGTATAATGAATCATAGGACCTGTTATGCCTACTGCCTCGGA
# B3: sh-1C: paired control shRNA for sh-1, SEQ ID NO. 7 (nucleic acid)
# guide: TGCTGTTGACAGTGAGCGAATGATTCCTTAAACAGCCCAATAGTGAAGCCACAGATGTATTGGGCTGTTTAAGGAATCATGTGCCTACTGCCTCGGA
# B4: sh-1: shRNA targeting the 11a insertion of Mena^11a, SEQ ID NO. 6 (nucleic acid)
# guide: TGCTGTTGACAGTGAGCGCATGATTCATTACACAGACCAATAGTGAAGCCACAGATGTATTGGTCTGTGTAATGAATCATATGCCTACTGCCTCGGA
# Legend:
# MDA-MB-231 cells [1] = test: Cell viability assay (Prestoblue) in MDA-MB-231 cells expressing GFP, GFP-Mena or GFP-Mena^INV; conditions: 72 h; for effect of Mena or Mena^INV expression on fraction of viable cells / response to drug: range of concentrations
# Protocol: Cell viability assays were performed in a 96-well plate. 5,000 cells were plated per well and treated with drug 24 hours later. Cell viability was assayed 72 hours later using the PrestoBlue Cell Viability Reagent (Life Technologies), according to manufacturer's protocol. Fluorescence was measured and normalized to cells exposed to vehicle. The activity area was calculated from doseresponse plots using Matlab. All measurements were repeated in triplicate.
# [2] = system: MDA-MB-231 xenograft tumors; test: Xenograft tumor growth in NOD-SCID mice with chemotherapy treatment; assay type: in vivo, mouse; conditions: three doses Taxol/paclitaxel 10 mg/kg or two doses Doxorubicin 5 mg/kg
# Protocol: Mena or Mena^INV expression blocks Taxol efficacy on tumors in treated animals. Mice with xenograft tumors were generated by injection of MDA-MB-231 cells expressing GFP (Control), GFP-Mena (Mena) or GFP-Mena^INV (Mena^INV) into the mammary fat pads of NOD-SCID mice. […] Tumor size was measured before and after treatment. […] These in vivo findings are consistent with the results obtained in the in vitro data, and indicate that Men/Mena^INV promotes resistance to Taxol as judged by tumor growth.
# Xenograft tumor generation and in vivo chemotherapy treatment. All animal experiments were approved by the MIT Division of Comparative Medicine. 2 million MDA-MB-231 cells expressing different MENA isoforms (in PBS and 20% collagen I) were injected into the 4th right mammary fat pad of six week-old female NOD-SCID mice (Taconic). When the tumors reached 1 cm in diameter, mice were treated every five days with either three doses of paclitaxel at 10 mg/kg in 1% DMSO, 3% PEG (MW 400), 1% Tween 80 in PBS by intra-peritoneal injection. In parallel, mice were treated with only in 1% DMSO, 3% PEG (MW 400), 1% Tween 80 in PBS as a vehicle control. One day after the last injection, tumors were measured and mice were use for intravital imaging and then sacrificed. Their tumors and lungs were fixed in 10% formalin overnight, their bone marrow were collected using PBS and cultured in DMEM with 10% fetal bovine serum. The number of tumor cell colonies in cultured bone morrow was counted 1 month after collection. The number of metastasis in each lobe of the lung were counted from lung H&E stained sections visualized by light microscopy and counted by two blinded individuals. Each tumor group contained 3-5 mice.
# MENA isoform expression is associated with increased tumor growth in vivo during paclitaxel treatment. Whether MENA-associated paclitaxel resistance could also be observed in vivo was examined. Xenograft tumors were generated by injecting MDA-MB-231 cells expressing MENA isoforms into the mammary fat pads of NOD-SCID mice. Mice were treated with paclitaxel once tumors reached 1 cm in diameter (FIG. 30A).
# microtubules (MT) = test: Immunofluorescence ratio of Glu-MT (stable) to Tyr-MT (dynamic); assay type: cell-based, human; conditions: 231-MENA^INV cells, 24 hours
# Protocol: Immunofluorescence. Glass bottom dishes (Mattek) were coated with Collagen at 0.1 mg/mL diluted in PBS and 50 μg/mL FN for 1 hour at 37° C. Cells were plated for 1 hour, and then treated with paclitaxel alone or in combination with MEKi for 24 hours. Cells were fixed for 20 minutes in 4% paraformaldehyde in PHEM buffer with 0.1% Gluteraldehyde, and then quenched with sodium borohydrate for 5 minutes. Cells were blocked with 2% BSA in TBS-0.1%TritonX-100 for 30 minutes, and incubated with primary antibodies and then secondary antibodies for 1 hour each, at room temperature. Z series of images were taken on an Applied Precision DeltaVision microscope using Softworx acquisition, an Olympus 60×1.4 NA plan apo objective and a Photometrics CoolSNAP HQ camera. Images were deconvolved using Deltavision Softworx software and objective specific point spread function. Images were analyzed with ImageJ, where the whole cell intensity levels of Tyr- or Glu-MT was measured. Images are pooled from at least 3 independent experiments.
# Paclitaxel promotes cell death by increasing the stability of MTs, and pathways driving increased MT dynamics are known to promote resistance to taxanes. Therefore, MT structure and dynamics in MENA isoform expressing cells was examined during paclitaxel treatment. […] Post-translational modification of MTs can regulate their dynamics, and antibodies that detect such modifications can be used to infer the relative dynamics of MT populations; in particular, MT tyrosination indicates a dynamic MT state, while de-tyrosination of MTs is associated with increased stability. The relative abundance of stable (Glu-MT) vs. dynamic (Tyr-MT) MTs was measured in individual cells by immunofluorescence with anti-Glu-MT and anti-Tyr-MT antibodies (FIGS. 37A, 37B).
# (§1) The MAPK signaling cascade is among the key pathways known to interact with MTs. Both ERK1/2 interact with MTs; MT stabilization by paclitaxel increases ERK phosphorylation and, in turn, ERK pathway activation increases MT dynamics.
# ERK, Akt = test: Western blot for pERK Y204, ERK, pAkt473 and Akt; assay type: cell-based, human; conditions: 231-MENA^INV cells; 10 nM paclitaxel, 0.1 μM MEKi, 72 hours
# Protocol: (§2) Western blot. Cells were lysed in 25 mM Tris, 150 mM NaCl, 10% glycerol, 1% NP 40 and […] EDTA with a protease Mini-complete protease inhibitors (Roche) and a phosphatase inhibitor cocktail (PhosSTOP, Roche) at 4° C. for 20 minutes. Protein lysates were separated by SDS-PAGE, transferred to a nitrocellulose membrane and blocked with Odyssey Blocking Buffer (LiCor). Membranes were incubated with primary antibody overnight at 4° C. and Licor secondary antibodies at room temperature for 1 hour. Protein level intensity was measured with Image J.
# as §1
# MDA-MB-231 cells [3] = test: Proliferation assay (cell count) with combinations of paclitaxel and MEKi; assay type: cell-based, human
# Mena = Mena expression in cultured cells after taxane treatment (Western blot, FACS of GFP); assay type: cell-based, human; conditions: MDA-MB-231 populations expressing GFP, GFP-MENA or GFP-MENA^INV
# Protocol: Taxol treatment induces increased Mena protein expression in vitro and in vivo. As high level of Mena or Mena^INV expression correlated with low response to Taxo, we hypothesized that Taxol treatment might affect Mena expression. […]. After 72 h of treatment with the drug, the expression level of Mena was 70% higher than in vehicle-treated cells.
# as §2
# Paclitaxel treatment selects for high MENA expression in vitro and in vivo. The Examples so far indicate that increased MENA or MENA^INV expression levels are associated with reduced responses to paclitaxel. The effect of paclitaxel treatment on levels of MENA expression in cell populations in vitro and in vivo was examined. First, endogenous MENA expression by Western Blot in 5 breast cancer cell lines that were exposed to 100 nM of paclitaxel or a vehicle control were analyzed (FIG. 33A).
# SKBr3 cells = test: Wound closure assay, SKBr3 cells with Mena^11a-specific shRNA; assay type: cell-based, human; conditions: twenty-four hours
# Protocol: (§3) The Mena^11a knockdown procedure employed shRNAs was based on 97-mer oligos (Invitrogen) comprising the shRNAs amplified by PCR with primers having EcoRI/XhoI sites, and were cloned into the pMSCV-miR30-MLS-GFP vector (gift from Michael Hemann, Koch Institute, MIT). Oligo sequences are:
# (§4) Mena^11a-specific depletion enhances cell migration and membrane protrusion. Previously, the effects of Mena^11a on cancer cell motility were evaluated in assays utilizing ectopic expression. To study the role of endogenously expressed Mena^11a on cancer cell motility, we used Mena^11a-KD cells, including T47D and SKBr3 human breast cancer cells which have >80% reduction of Mena^11a protein levels (FIG. 15A-B, 15E-F), in wound closure assays. […] T47D cells yielded similar results (FIG. 15C-D), although complete closure of the control T47D cells took longer than with SKBr3 cells. […] Therefore, depletion of the Mena^11a isoform from cells that normally express both Mena and Mena^11a increased cell migration rates.
# T47D cells = test: Wound closure assay and morphology (circularity), T47D cells with Mena^11a-specific shRNA; assay type: cell-based, human; conditions: for percent of cell free region filled (gap closure): 48 hours; for circularity of cells at the free edge of the monolayer: perfect circularity=1
# Source text: as §3
# Signal intensities from antibodies or rhodamine-labeled barbed ends along the cell edge were quantified with a contour-based ImageJ macro. We measured the distribution of signal along the membrane plotted as a function of distance from the cell edge (mean±SEM) and the sum of the intensities in the first 0.65 μm from the cell edge. Circularity measures were performed by manually tracing the cells at the free edge of the epithelial monolayer, and by using the circularity plugin built in ImageJ. In this analysis, a circularity value of 1 indicates a perfect circle while, as the value approaches 0, it indicates an elongated cell shape. For quantitative imaging, we used the same hardware configuration and exposure time for all cell lines analyzed in the same experiment. […] Extracted pixel intensities were exported to Microsoft Excel for analysis and Graph-Pad Prism for graphing.
# as §4
# Consistent with changes in migration, we observed that the morphology of T47D Mena^11a-KD cells differed from control-KD cells, specifically at the free edge of the monolayer (FIG. 151).
molecule,measurement,setting,value
N.N.[Cl][Pt][Cl] [Cisplatin],effect of Mena or Mena^INV expression on fraction of viable cells / response to drug,MDA-MB-231 cells [1],neither GFP-Mena nor GFP-MenaINV expression affected the fraction of viable MDA-MB-231 cells differently than the GFP controls
same,effect of Mena or Mena^INV expression on fraction of viable cells / response to drug,MDA-MB-231 cells [1]; listed as cisplatin,neither MENA nor MENA^INV expression affected the response
COc1cccc2c1C(=O)c1c(O)c3c(c(O)c1C2=O)C[C@@](O)(C(=O)CO)C[C@@H]3O[C@H]1C[C@H](N)[C@H](O)[C@H](C)O1 [Doxorubicin],growth of control tumors compared to vehicle,[2]; GFP (Control) tumors,significantly decreased growth of control tumors
same,growth / response of Mena or Mena^INV tumors,[2]; Mena or Mena^INV expressing tumors,decreased response
same,effect of Mena or Mena^INV expression on fraction of viable cells / response to drug,MDA-MB-231 cells [1],neither MENA nor MENA^INV expression affected the response
COc1cc2c(cc1OC)CN(CCc1ccc(-n3nnc(-c4cc(OC)c(OC)cc4NC(=O)c4cc(=O)c5ccccc5o4)n3)cc1)CC2 [HM30181],fraction of viable cells on co-treatment with 100 nM paclitaxel,"MDA-MB-231 cells [1]; 231-Control cells, HM30181 100 nM",negligibly affected
same,paclitaxel efficacy on co-treatment with MDR1 inhibitor,"MDA-MB-231 cells [1]; 231-MENA^INV cells, 100 nM paclitaxel",did not increase paclitaxel efficacy
O=C(NOC[C@H](O)CO)c1ccc(F)c(F)c1Nc1ccc(I)cc1F [PD0325901],"stable MTs relative to dynamic MTs, both drugs simultaneously",microtubules (MT); paclitaxel plus MEKi,induced increases in stable MTs relative to dynamic MTs
same,"stable MTs relative to dynamic MTs, either drug alone",microtubules (MT); single drug,had no effect
same,paclitaxel-induced ERK phosphorylation,"ERK, Akt",blocked
same,concentrations needed to obtain high levels of cell death relative to 231-Control cells,MDA-MB-231 cells [3]; 231-MENA and 231-MENA^INV cells,higher concentrations of each drug were needed
same,combination of paclitaxel and MEKi in proliferation assay (cell death),"MDA-MB-231 cells [3]; all cell lines, 72 hours, both drugs simultaneously",significant additive effects
CC(=O)O[C@@]12CO[C@@H]1C[C@H](O)[C@@]1(C)C(=O)[C@H](O)C3=C(C)[C@@H](OC(=O)[C@H](O)[C@@H](NC(=O)OC(C)(C)C)c4ccccc4)C[C@@](O)([C@@H](OC(=O)c4ccccc4)[C@H]21)C3(C)C [docetaxel],FACS analysis of GFP expression levels after taxane treatment,Mena,"selected for cells expressing higher levels of GFP-MENA or GFP-MENA^INV, but not of GFP"
B1,percent of initially cell-free region filled (gap closure),SKBr3 cells,55.24% ±1.8
same,percent of cell free region filled (gap closure),T47D cells,40.38% ±4.2
same,circularity of cells at the free edge of the monolayer,T47D cells,0.640
B2,percent of initially cell-free region filled (gap closure),SKBr3 cells,77.84% ±3.6
same,percent of cell free region filled (gap closure),T47D cells,70.20% ±8.8
same,circularity of cells at the free edge of the monolayer,T47D cells,0.509
B3,percent of initially cell-free region filled (gap closure),SKBr3 cells,49.03% ±4.2
same,percent of cell free region filled (gap closure),T47D cells,50.41% ±3.7
same,circularity of cells at the free edge of the monolayer,T47D cells,0.683
B4,percent of initially cell-free region filled (gap closure),SKBr3 cells,74.76% ±4.8
same,percent of cell free region filled (gap closure),T47D cells,78.39% ±4.8
same,circularity of cells at the free edge of the monolayer,T47D cells,0.614
